From PubChem BioAssay (NCI)
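Interpolation was linear, between the two tested concentrations surrounding the appropriate level; five concentrations were tested over 48 hours in 96-well plates. TGI: total growth inhibition.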

How the values were obtained:
Assay in all cases: NCI tumour cell line growth inhibition, 48 h
[1] = system: HT29 colon
[2] = system: DMS 114 small cell lung
[3] = system: UO-31 renal
[4] = system: HOP-62 NSCLC
[5] = system: A549 NSCLC
[6] = system: K-562 leukemia
[7] = system: ACHN renal
[8] = system: OVCAR-5 ovarian
[9] = system: KM20L2 colon
[10] = system: SW-620 colon
[11] = system: OVCAR-3 ovarian
[12] = system: NCI-H522 lung
[13] = system: SNB-19 CNS
[14] = system: LOX IMVI melanoma
[15] = system: CAKI-1 renal
[16] = system: HL-60(TB) leukemia
[17] = system: SK-OV-3 ovarian
[18] = system: SF-268 CNS
[19] = system: NCI-H460 lung
[20] = system: MALME-3M melanoma
[21] = system: SR leukemia
[22] = system: NCI-H23 lung
[23] = system: M19-MEL melanoma
[24] = system: HOP-18 NSCLC
[25] = system: RPMI-8226 leukemia
[26] = system: OVCAR-8 ovarian
[27] = system: SN12C renal
[28] = system: HOP-92 NSCLC
[29] = system: SNB-75 CNS
[30] = system: COLO 205 colon
[31] = system: SF-539 CNS
[32] = system: SK-MEL-5 melanoma
[33] = system: KM12 colon
[34] = system: UACC-62 melanoma
[35] = system: SK-MEL-28 melanoma
[36] = system: U251 CNS
[37] = system: M14 melanoma
[38] = system: SF-295 CNS
[39] = system: A498 renal
[40] = system: NCI-H226 lung
[41] = system: DLD-1 colon
[42] = system: MOLT-4 leukemia
[43] = system: IGROV1 ovarian
[44] = system: DMS 273 small cell lung
[45] = system: HCT-116 colon
[46] = system: SNB-78 CNS
[47] = system: OVCAR-4 ovarian
[48] = system: HCC-2998 colon
[49] = system: SK-MEL-2 melanoma
[50] = system: RXF-631 renal
[51] = system: CCRF-CEM leukemia
[52] = system: XF 498 CNS
[53] = system: LXFL 529 NSCLC
[54] = system: RXF 393 renal
[55] = system: UACC-257 melanoma
[56] = system: HCT-15 colon
[57] = system: TK-10 renal
[58] = system: 786-0 renal
[59] = system: EKVX NSCLC
[60] = system: P388 leukemia
[61] = system: SN12K1 renal
[62] = system: MCF7 breast
[63] = system: NCI/ADR-RES ovarian

Compound: CN(C)CCC1(C2=CCCC2)CC/C(=C\c2ccc(Cl)cc2)C1=O (centres undefined)
- TGI [1]: 8.35 µM
- TGI [2]: 21.8 µM
- TGI [3]: 18.8 µM
- TGI [4]: 32.7 µM
- TGI [5]: 26.9 µM
- TGI [6]: > 23.2 µM
- TGI [7]: 23.8 µM
- TGI [8]: 25.7 µM
- TGI [9]: 7.82 µM
- TGI [10]: 24.2 µM
- TGI [11]: 26.8 µM
- TGI [12]: 18.8 µM
- TGI [13]: 24.1 µM
- TGI [14]: 23.1 µM
- TGI [15]: 19.2 µM
- TGI [16]: 3.91 µM
- TGI [17]: 19.6 µM
- TGI [18]: 26.1 µM
- TGI [19]: 26.9 µM
- TGI [20]: 15.4 µM
- TGI [21]: 7.42 µM
- TGI [22]: 29.3 µM
- TGI [23]: 13.3 µM
- TGI [24]: 24.8 µM
- TGI [25]: 22.4 µM
- TGI [26]: 25.3 µM
- TGI [27]: 24.3 µM
- TGI [28]: 15.4 µM
- TGI [29]: 20.4 µM
- TGI [30]: 28.3 µM
- TGI [31]: 25.7 µM
- TGI [32]: 4.07 µM
- TGI [33]: 23.6 µM
- TGI [34]: 9.05 µM
- TGI [35]: 7.4 µM
- TGI [36]: 21.8 µM
- TGI [37]: 3.84 µM
- TGI [38]: 20.8 µM
- TGI [39]: 19.1 µM
- TGI [40]: 28.1 µM
- TGI [41]: 20.6 µM
- TGI [42]: 6.02 µM
- TGI [43]: 21 µM
- TGI [44]: 24.8 µM
- TGI [45]: 22.3 µM
- TGI [46]: 26.9 µM
- TGI [47]: 21.5 µM
- TGI [48]: 20.2 µM
- TGI [49]: 14.2 µM
- TGI [50]: 25.4 µM
- TGI [51]: > 22.7 µM
- TGI [52]: 19.1 µM
- TGI [53]: 21.4 µM
- TGI [54]: 10.9 µM
- TGI [55]: 8.62 µM
- TGI [56]: 16.6 µM
- TGI [57]: 23.3 µM
- TGI [58]: 15.2 µM
- TGI [59]: 18.8 µM

Compound: CC(=O)Nc1ccc(/C=C/c2ccc(NC(=O)Nc3ccc(/C=C/c4ccc(NC(C)=O)cc4S(=O)(=O)O)c(S(=O)(=O)O)c3)cc2S(=O)(=O)O)c(S(=O)(=O)O)c1
- TGI [1]: > 100 µM
- TGI [2]: > 100 µM
- TGI [3]: > 100 µM
- TGI [60]: > 100 µM
- TGI [4]: > 100 µM
- TGI [5]: > 100 µM
- TGI [61]: > 100 µM
- TGI [6]: > 100 µM
- TGI [8]: > 100 µM
- TGI [9]: > 100 µM
- TGI [10]: > 100 µM
- TGI [11]: > 100 µM
- TGI [12]: > 100 µM
- TGI [13]: > 100 µM
- TGI [14]: > 100 µM
- TGI [16]: > 100 µM
- TGI [62]: > 100 µM
- TGI [17]: > 100 µM
- TGI [18]: > 100 µM
- TGI [19]: > 100 µM
- TGI [20]: > 100 µM
- TGI [22]: > 100 µM
- TGI [23]: > 100 µM
- TGI [24]: > 100 µM
- TGI [25]: > 100 µM
- TGI [26]: > 100 µM
- TGI [27]: > 100 µM
- TGI [28]: > 75.6 µM
- TGI [29]: > 100 µM
- TGI [30]: > 100 µM
- TGI [31]: > 100 µM
- TGI [32]: > 100 µM
- TGI [33]: > 100 µM
- TGI [34]: > 100 µM
- TGI [35]: > 100 µM
- TGI [36]: > 100 µM
- TGI [63]: > 100 µM
- TGI [38]: > 100 µM
- TGI [39]: > 100 µM
- TGI [40]: > 100 µM
- TGI [41]: > 100 µM
- TGI [42]: > 100 µM
- TGI [43]: > 100 µM
- TGI [44]: > 100 µM
- TGI [45]: > 100 µM
- TGI [46]: > 100 µM
- TGI [47]: > 100 µM
- TGI [48]: > 100 µM
- TGI [49]: > 100 µM
- TGI [51]: > 100 µM
- TGI [52]: > 100 µM
- TGI [54]: > 100 µM
- TGI [55]: > 100 µM
- TGI [56]: > 100 µM
- TGI [59]: > 100 µM
